Drawing on ChEMBL document CHEMBL2074279, “Pharmacokinetics of 5 (and 6)-carboxy-2',7'-dichlorofluorescein and its diacetate promoiety in the liver” (J Pharmacol Exp Ther, 2003), this text covers Activity for 1 molecule.

Series [1] concerns the target ATP-binding cassette sub-family C member 2 (Rattus norvegicus, UniProt Q63120). Kind of series: TP_TRANSPORTER: inhibition of CDF uptake (CDF: 10 uM, Probenecid: 260 uM) in Mrp2-expressing Sf9 cells. In kind it is functional. To be noted: sf9, 260 µM.
Series [2] has as its target ATP-binding cassette sub-family C member 3 (Rattus norvegicus, UniProt O88563). The series is described as follows: TP_TRANSPORTER: inhibition of CDF uptake (CDF: 10 uM, Probenecid: 260 uM) in Mrp3-expressing Sf9 cells. In kind it is functional. To be noted: sf9, 260 µM.

ATP-binding cassette sub-family C member 3, sequence (O88563 whole entry): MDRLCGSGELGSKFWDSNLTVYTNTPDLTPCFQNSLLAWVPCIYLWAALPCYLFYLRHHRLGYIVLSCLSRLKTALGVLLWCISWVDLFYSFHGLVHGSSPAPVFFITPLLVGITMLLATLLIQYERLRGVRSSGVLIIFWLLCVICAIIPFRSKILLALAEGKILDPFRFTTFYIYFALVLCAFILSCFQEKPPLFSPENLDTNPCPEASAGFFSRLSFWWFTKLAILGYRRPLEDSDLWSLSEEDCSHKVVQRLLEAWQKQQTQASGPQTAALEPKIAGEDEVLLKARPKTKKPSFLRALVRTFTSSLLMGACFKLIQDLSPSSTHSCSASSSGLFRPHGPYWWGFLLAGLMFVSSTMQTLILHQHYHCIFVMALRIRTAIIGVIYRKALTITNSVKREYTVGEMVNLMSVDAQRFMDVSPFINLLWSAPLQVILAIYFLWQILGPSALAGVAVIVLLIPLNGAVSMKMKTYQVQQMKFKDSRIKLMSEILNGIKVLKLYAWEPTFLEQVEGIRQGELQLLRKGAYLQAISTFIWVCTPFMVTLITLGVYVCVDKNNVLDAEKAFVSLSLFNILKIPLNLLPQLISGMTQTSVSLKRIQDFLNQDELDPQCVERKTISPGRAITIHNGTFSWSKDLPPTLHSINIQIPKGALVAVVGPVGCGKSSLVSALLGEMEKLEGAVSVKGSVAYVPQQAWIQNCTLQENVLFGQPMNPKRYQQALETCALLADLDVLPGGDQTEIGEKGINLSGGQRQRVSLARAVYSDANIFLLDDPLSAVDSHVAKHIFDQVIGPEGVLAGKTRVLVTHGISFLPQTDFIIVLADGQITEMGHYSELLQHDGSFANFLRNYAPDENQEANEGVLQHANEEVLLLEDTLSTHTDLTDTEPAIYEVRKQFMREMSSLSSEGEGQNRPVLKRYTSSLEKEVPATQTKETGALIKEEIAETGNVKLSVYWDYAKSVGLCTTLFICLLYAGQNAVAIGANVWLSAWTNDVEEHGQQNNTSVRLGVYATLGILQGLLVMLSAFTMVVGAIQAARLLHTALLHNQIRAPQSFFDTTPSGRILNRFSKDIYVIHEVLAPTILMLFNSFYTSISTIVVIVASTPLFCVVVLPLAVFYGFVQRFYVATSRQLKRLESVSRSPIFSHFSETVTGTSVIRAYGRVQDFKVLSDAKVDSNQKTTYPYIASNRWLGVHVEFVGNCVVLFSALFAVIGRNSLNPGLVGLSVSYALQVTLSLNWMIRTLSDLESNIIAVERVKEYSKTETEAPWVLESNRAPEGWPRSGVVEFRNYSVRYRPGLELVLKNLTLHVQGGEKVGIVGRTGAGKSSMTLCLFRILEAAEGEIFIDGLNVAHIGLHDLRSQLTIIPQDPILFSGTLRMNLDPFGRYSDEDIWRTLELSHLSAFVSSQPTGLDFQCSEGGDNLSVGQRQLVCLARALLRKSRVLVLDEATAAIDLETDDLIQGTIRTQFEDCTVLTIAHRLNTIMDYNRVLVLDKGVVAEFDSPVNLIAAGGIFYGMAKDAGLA
ATP-binding cassette sub-family C member 2, sequence (Q63120 whole entry): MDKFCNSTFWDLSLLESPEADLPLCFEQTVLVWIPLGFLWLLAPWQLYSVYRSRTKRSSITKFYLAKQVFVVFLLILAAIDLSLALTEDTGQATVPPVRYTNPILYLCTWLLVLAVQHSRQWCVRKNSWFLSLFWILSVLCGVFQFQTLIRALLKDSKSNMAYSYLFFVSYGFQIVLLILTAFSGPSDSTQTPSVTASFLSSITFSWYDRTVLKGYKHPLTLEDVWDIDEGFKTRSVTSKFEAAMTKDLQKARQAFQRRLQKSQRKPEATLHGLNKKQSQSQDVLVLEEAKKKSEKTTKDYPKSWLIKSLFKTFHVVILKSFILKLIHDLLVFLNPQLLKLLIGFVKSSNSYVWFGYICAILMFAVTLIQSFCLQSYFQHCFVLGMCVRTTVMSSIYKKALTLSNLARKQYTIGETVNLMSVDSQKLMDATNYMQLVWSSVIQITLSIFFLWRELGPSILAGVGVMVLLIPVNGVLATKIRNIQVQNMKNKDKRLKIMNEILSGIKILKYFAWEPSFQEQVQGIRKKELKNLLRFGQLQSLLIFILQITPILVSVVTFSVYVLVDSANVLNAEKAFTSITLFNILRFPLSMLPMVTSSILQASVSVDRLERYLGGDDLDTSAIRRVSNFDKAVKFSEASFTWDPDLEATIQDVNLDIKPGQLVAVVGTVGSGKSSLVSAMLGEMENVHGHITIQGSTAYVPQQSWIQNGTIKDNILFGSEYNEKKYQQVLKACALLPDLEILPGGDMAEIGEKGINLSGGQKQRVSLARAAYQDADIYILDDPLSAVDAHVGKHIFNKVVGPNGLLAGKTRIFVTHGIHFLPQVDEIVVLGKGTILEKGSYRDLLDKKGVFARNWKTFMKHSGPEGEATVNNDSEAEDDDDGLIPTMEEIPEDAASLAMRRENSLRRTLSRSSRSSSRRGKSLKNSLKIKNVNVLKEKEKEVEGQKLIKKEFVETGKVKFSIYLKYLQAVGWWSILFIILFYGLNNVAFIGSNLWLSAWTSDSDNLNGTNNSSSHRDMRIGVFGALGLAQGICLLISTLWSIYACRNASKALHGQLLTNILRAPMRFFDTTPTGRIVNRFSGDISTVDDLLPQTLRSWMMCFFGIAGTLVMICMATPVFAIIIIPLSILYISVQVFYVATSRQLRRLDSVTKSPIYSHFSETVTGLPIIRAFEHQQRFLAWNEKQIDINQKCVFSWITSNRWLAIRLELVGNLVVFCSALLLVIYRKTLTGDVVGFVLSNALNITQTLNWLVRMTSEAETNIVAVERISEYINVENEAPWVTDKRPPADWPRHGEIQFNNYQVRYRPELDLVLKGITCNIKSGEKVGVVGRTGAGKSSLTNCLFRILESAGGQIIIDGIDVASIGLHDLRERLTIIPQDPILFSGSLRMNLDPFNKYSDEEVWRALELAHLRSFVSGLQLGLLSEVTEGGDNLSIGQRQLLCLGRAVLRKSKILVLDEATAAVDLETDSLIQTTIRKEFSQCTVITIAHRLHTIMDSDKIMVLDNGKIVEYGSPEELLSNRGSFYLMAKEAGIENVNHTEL

Turning to `CCCN(CCC)S(=O)(=O)c1ccc(C(=O)O)cc1` [PROBENECID], the Activity result in series [1] was “inhibitor [(at a rough estimate) 40 % of control]”; in series [2], “inhibitor [(at a rough estimate) 35 % of control]”.
